Values quoted from earlier work in patent US20210230662A1, “Methods for the Treatment of Solid Tumor Cancers Using Illudins and Biomarkers” (Lantern Pharma Inc., priority 2018, published 2021).

Columns and labels:
tumor cells = conditions: at certain doses
normal cells = conditions: at certain doses

Compound: CC1=C(CO)C2=C(C)C3(CC3)[C@@](C)(O)C(=O)C2=C1 [Irofulven, HydroxyMethylAcylfulvene]
- susceptibility of tumor cells to dual damaging activity (tumor cells): highly susceptible
- response of normal cells to the cell-killing drug (normal cells): marginal response
